Results on 1 molecule are retold here after ChEMBL document CHEMBL3046886, “Action of benzimidazolo-piperazinyl derivatives on dopamine receptors” (Med Chem Res, 2013).

For orientation: IC50 means the concentration that gives 50% inhibition. A low value points to greater potency in that assay.

Assay [1] concerns the target T1, 5-hydroxytryptamine receptor 3A (Homo sapiens, UniProt P46098).
T1 sequence (P46098 whole entry): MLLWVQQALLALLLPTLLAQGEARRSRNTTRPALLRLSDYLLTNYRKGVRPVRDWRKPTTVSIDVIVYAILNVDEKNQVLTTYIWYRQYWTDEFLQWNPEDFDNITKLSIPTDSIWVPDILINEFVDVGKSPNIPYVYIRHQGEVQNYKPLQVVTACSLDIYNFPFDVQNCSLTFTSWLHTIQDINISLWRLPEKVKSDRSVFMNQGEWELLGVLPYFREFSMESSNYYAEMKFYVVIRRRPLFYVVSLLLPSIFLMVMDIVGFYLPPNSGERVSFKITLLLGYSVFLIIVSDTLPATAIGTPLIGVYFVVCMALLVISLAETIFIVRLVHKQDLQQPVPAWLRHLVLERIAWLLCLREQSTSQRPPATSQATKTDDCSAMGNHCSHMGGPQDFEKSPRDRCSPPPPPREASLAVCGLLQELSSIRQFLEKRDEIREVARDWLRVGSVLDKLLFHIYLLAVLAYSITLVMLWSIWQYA
Put plainly: Binding affinity to 5-HT3 receptor (unknown origin).

Another assay has as its target D(1A) dopamine receptor (Homo sapiens, UniProt P21728). Put plainly: Binding affinity to dopamine D1 receptor (unknown origin). To be noted: read-out: pKi (converted).
For assay [2], the target named is 5-hydroxytryptamine receptor 2A (Homo sapiens, UniProt P28223). The following applies: read-out: pKi (converted).
Assay [3] concerns the target T2, 5-hydroxytryptamine receptor 1A (Homo sapiens, UniProt P08908).
T2 sequence (P08908 whole entry): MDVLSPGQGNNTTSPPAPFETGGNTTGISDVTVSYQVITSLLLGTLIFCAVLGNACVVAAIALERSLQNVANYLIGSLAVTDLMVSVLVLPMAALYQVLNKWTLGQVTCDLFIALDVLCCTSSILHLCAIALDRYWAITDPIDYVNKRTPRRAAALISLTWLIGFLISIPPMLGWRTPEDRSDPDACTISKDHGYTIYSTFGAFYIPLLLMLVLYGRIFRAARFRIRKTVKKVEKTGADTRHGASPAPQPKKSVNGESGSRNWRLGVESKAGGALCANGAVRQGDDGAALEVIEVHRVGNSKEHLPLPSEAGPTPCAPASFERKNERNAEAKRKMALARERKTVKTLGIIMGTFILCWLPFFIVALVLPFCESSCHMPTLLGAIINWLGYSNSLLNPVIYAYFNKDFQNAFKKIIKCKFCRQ
Put plainly: Binding affinity to 5-HT1A receptor (unknown origin). To be noted: read-out: pKi (converted).

Assay [4] deals with Sodium-dependent serotonin transporter (Homo sapiens, UniProt P31645).
Description: Inhibition of 5-HT uptake at SERT (unknown origin)
The target of assay [5] is T3, 5-hydroxytryptamine receptor 2C (Homo sapiens, UniProt P28335).
T3 sequence (P28335 whole entry): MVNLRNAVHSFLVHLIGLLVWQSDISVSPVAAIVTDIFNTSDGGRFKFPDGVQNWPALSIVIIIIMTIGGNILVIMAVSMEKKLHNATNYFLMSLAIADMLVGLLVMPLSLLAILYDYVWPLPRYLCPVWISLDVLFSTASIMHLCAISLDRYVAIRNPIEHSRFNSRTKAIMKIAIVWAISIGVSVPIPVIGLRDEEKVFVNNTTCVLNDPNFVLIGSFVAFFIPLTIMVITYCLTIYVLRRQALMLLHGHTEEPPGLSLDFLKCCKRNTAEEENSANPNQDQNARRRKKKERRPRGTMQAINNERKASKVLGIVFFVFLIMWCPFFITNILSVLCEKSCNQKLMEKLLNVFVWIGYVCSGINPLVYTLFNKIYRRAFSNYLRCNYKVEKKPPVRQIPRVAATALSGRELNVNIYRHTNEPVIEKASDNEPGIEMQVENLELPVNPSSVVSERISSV
Put plainly: Binding affinity to 5-HT2C receptor (unknown origin).

A further assay addresses D(2) dopamine receptor (Homo sapiens, UniProt P14416). Put plainly: Binding affinity to dopamine D2 receptor (unknown origin). The following applies: read-out: pKi (converted).
The species named for a further assay is Homo sapiens. Put plainly: Ratio of pKi for 5-HT2A receptor (unknown origin) to pKi for dopamine D2 receptor (unknown origin).

Chain of Sodium-dependent serotonin transporter (P31645 whole entry): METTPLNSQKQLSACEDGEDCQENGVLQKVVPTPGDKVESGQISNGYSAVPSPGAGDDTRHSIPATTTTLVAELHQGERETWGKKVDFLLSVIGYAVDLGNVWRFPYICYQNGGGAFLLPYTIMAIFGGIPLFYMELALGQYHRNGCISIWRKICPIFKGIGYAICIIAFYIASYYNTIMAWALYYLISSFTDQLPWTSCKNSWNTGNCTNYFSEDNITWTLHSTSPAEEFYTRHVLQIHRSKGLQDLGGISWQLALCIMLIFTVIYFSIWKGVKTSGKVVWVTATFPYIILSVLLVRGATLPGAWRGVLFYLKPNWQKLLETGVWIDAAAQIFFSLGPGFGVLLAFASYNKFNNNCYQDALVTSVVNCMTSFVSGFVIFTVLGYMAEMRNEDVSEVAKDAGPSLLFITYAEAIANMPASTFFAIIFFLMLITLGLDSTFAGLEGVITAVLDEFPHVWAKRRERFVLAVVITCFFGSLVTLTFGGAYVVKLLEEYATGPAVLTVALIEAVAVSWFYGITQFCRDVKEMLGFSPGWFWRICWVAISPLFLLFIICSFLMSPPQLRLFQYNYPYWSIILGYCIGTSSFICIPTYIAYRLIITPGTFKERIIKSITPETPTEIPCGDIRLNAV
Chain of 5-hydroxytryptamine receptor 2A (P28223 whole entry): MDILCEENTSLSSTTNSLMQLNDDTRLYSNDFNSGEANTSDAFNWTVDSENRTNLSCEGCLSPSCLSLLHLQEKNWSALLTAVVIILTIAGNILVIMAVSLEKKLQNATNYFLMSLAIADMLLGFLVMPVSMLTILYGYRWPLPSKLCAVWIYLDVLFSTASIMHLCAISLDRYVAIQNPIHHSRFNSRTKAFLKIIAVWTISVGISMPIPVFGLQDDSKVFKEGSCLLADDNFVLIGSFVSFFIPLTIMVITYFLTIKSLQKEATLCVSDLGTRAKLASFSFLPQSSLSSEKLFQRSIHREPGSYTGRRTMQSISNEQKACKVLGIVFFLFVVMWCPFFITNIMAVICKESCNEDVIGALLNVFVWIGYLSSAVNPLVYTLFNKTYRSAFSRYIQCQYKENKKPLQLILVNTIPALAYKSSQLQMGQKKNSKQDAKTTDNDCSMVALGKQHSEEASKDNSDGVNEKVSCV
Chain of D(1A) dopamine receptor (P21728 whole entry): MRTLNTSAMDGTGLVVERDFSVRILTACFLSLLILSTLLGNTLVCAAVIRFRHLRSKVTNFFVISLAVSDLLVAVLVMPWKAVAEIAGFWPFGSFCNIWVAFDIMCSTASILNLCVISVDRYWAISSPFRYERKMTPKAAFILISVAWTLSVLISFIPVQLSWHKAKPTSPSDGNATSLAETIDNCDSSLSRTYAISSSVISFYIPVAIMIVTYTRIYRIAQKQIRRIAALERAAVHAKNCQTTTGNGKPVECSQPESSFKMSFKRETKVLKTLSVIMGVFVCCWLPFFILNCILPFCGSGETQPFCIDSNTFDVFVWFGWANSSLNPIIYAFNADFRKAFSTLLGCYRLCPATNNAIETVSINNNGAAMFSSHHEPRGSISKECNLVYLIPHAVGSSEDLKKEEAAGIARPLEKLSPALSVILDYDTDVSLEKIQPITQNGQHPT
Chain of D(2) dopamine receptor (P14416 whole entry): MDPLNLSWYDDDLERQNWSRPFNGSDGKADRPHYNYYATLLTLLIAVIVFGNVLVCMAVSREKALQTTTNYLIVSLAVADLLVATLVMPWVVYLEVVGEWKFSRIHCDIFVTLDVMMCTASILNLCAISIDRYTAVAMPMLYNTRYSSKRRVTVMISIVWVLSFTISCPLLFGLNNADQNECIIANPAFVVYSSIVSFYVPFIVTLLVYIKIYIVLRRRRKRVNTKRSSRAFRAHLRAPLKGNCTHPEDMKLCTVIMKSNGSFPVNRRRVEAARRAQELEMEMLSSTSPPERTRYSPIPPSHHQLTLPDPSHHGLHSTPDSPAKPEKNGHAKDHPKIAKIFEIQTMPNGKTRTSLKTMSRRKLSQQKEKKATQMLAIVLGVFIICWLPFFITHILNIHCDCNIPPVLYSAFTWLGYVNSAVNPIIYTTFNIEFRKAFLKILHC

Take `c1ccc2c(N3CCN(CCc4ccc5[nH]cnc5c4)CC3)cccc2c1`: the Ki was 5.25 µM in assay [1]; 3.98 µM at D(1A) dopamine receptor; 15.1 nM in assay [2]; 126 nM in assay [3]; 64.6 nM in assay [5]; 1.66 nM on D(2) dopamine receptor. Also, the IC50 in assay [4] is 1760 nM. For the same molecule, the Ratio pKi in the assay listed under Homo sapiens turned out to be 0.89.
